Source: ChEMBL document CHEMBL5030556, “Selection and Identification of Novel Antibacterial Agents against Planktonic Growth and Biofilm Formation of Enterococcus faecalis” (J Med Chem, 2021)
Active and inactive are the calls of the source. No cut-off for these calls is given here.

Legend:
Enterococcus faecalis [1] = experiment: Antibiofilm activity against Enterococcus faecalis FB-1 assessed as inhibition of biofilm maturation measured after 24 hr; type: functional, organism-based
Enterococcus faecalis [2] = experiment: Antimicrobial activity against Enterococcus faecalis OG1RF assessed as reduction in visible bacterial growth incubated for 16 to 20 hrs by microdilution broth assay; type: functional; conditions: time 16-20 hrs
[3] = Hemolytic activity against human erythrocytes at 200 uM incubated for 1 hr at 570 nm by spectrophotometry; type: ADME, tissue-based, Erythrocyte; conditions: read-out: Activity
Enterococcus faecalis [4] = experiment: Antibiofilm activity against Enterococcus faecalis FB-1 assessed as inhibition of biofilm maturation at 1.56 uM measured after 24 hr; type: functional, organism-based
Enterococcus faecalis [5] = experiment: Bacteriostatic activity against planktonic cells of Enterococcus faecalis OG1RF measured by microdilution broth assay; type: functional, organism-based
[6] = Inhibition of Enterococcus faecalis OG1RF YycG autophosphorylation by Kinase-Glo luminescent kinase assay
[7] = Cytotoxicity against african green monkey Vero cells assessed as inhibition of cell growth by MTT assay; type: cell-based; conditions: chlorocebus sabaeus
Enterococcus faecalis [8] = experiment: Antibiofilm activity against Enterococcus faecalis FB-1 assessed as eradication of mature biofilm by semiquantitative microtiter assay; type: functional, organism-based
Enterococcus faecalis [9] = experiment: Bactericidal activity against Enterococcus faecalis OG1RF assessed as reduction in bacterial colonies incubated for 16 to 20 hrs by microdilution broth analysis; type: functional; conditions: time 16-20 hrs, read-out: MBC99.9
Enterococcus faecalis [10] = experiment: Inhibition of biofilm formation of Enterococcus faecalis FB-1 assessed as inhibitory rate of formation at 100 uM for 24 hrs measured at 570 nm by crystal violet staining based spectrophotometry; type: functional
[11] = Hemolytic activity against human erythrocytes at 50 uM incubated for 1 hr at 570 nm by spectrophotometry; type: ADME, tissue-based, Erythrocyte; conditions: read-out: Activity
Staphylococcus aureus [12] = experiment: Antibacterial activity against Staphylococcus aureus ATCC 29213 assessed as reduction in visible bacterial growth incubated for 16 to 20 hrs by microdilution broth assay; type: functional; conditions: time 16-20 hrs
Staphylococcus aureus [13] = experiment: Antibacterial activity against Staphylococcus aureus ATCC 35556 assessed as reduction in visible bacterial growth incubated for 16 to 20 hrs by microdilution broth assay; type: functional; conditions: time 16-20 hrs
Enterococcus faecalis [14] = experiment: Antibacterial activity against Enterococcus faecalis FB-1 assessed as reduction in visible bacterial growth incubated for 16 to 20 hrs by microdilution broth assay; type: functional; conditions: time 16-20 hrs
Streptococcus agalactiae = experiment: Antibacterial activity against Streptococcus agalactiae NSGC64 assessed as reduction in visible bacterial growth incubated for 16 to 20 hrs by microdilution broth assay; type: functional; conditions: time 16-20 hrs
[15] = system: Staphylococcus epidermidis; experiment: Antibacterial activity against Staphylococcus epidermidis ATCC 35984 assessed as reduction in visible bacterial growth incubated for 16 to 20 hrs by microdilution broth assay; type: functional; conditions: time 16-20 hrs
Enterococcus faecium = experiment: Antibacterial activity against Enterococcus faecium EF16M64 assessed as reduction in visible bacterial growth incubated for 16 to 20 hrs by microdilution broth assay; type: functional; conditions: time 16-20 hrs
Enterococcus faecalis [16] = experiment: Antibacterial activity against Enterococcus faecalis OG1RF assessed as reduction in visible bacterial growth incubated for 16 to 20 hrs by microdilution broth assay; type: functional; conditions: time 16-20 hrs
Escherichia coli = experiment: Antibacterial activity against Escherichia coli […] assessed as reduction in visible bacterial growth incubated for 16 to 20 hrs by microdilution broth assay; type: functional; conditions: time 16-20 hrs
Enterococcus faecalis [17] = experiment: Antibacterial activity against Enterococcus faecalis ATCC 29212 assessed as reduction in visible bacterial growth incubated for 16 to 20 hrs by microdilution broth assay; type: functional; conditions: time 16-20 hrs
Enterococcus faecalis [18] = experiment: Antibiofilm activity against Enterococcus faecalis FB-1 assessed as inhibition of biofilm infection at 25 uM by fluid shear system; type: functional, organism-based
[19] = system: Staphylococcus epidermidis; experiment: Antibacterial activity against Staphylococcus epidermidis ATCC 12228 assessed as reduction in visible bacterial growth incubated for 16 to 20 hrs by microdilution broth assay; type: functional; conditions: time 16-20 hrs
Enterococcus faecalis [20] = experiment: Antibiofilm activity against Enterococcus faecalis assessed as reduction in amount of viable biofilm-embedded bacterial cells at 50 uM measured by YTO 9/PI staining followed by confocal laser scanning microscopy; type: functional

| MIC (Enterococcus faecalis [2]) | IC50 [6] | Structure (SMILES) | Activity (Enterococcus faecalis [1]) | hemolysis at 1 h, 200 µM [3] | Activity (Enterococcus faecalis [5]) | CC50 [7] | Activity (Enterococcus faecalis [8]) | MBC (Enterococcus faecalis [9]) | inhibition at 100 µM (Enterococcus faecalis [10]) | hemolysis at 1 h, 50 µM [11] | Activity (Enterococcus faecalis [20]) | other results |
| --- | --- | --- | --- | --- | --- | --- | --- | --- | --- | --- | --- | --- |
| > 200 µM | 27.4 µM | O=C(O)COc1ccc(/C=C2/SC(=O)N(Cc3ccc(F)cc3)C2=O)cc1Br | Dose-Dependent Effect | 22.7% | inactive | > 200 µM | inactive | > 200 µM | 83.5% | 8.36% |  | MIC (Staphylococcus aureus [12]): > 200 µM; MIC (Staphylococcus aureus [13]): > 200 µM; MIC (Enterococcus faecalis [14]): > 200 µM; MIC (Streptococcus agalactiae): > 200 µM; MIC [15]: > 200 µM; MIC (Enterococcus faecium): > 200 µM; MIC (Enterococcus faecalis [16]): > 200 µM; MIC (Escherichia coli): > 200 µM; MIC (Enterococcus faecalis [17]): > 200 µM; Activity (Enterococcus faecalis [18]): Active; MIC [19]: > 200 µM |
| > 200 µM | 8.3 µM | O=C(C1=C(O)C(=O)N(c2nnc(SCc3ccc(Cl)cc3)s2)C1c1cccc(O)c1)c1cc2ccccc2o1 (stereo not drawn) | Dose-Dependent Effect | 7.81% | inactive | > 200 µM |  | > 200 µM | 72% | 6.26% | 27.79% |  |

The remaining lines, values behind:

| Structure (SMILES) | MIC (Enterococcus faecalis [2]) | IC50 [6] | Activity (Enterococcus faecalis [1]) | hemolysis at 1 h, 200 µM [3] | Activity (Enterococcus faecalis [5]) | CC50 [7] | Activity (Enterococcus faecalis [8]) | MBC (Enterococcus faecalis [9]) | inhibition at 100 µM (Enterococcus faecalis [10]) | hemolysis at 1 h, 50 µM [11] | Activity (Enterococcus faecalis [20]) | other results |
| --- | --- | --- | --- | --- | --- | --- | --- | --- | --- | --- | --- | --- |
| O=C(C1=C(O)C(=O)N(c2nnc(SCc3ccc(F)cc3)s2)C1c1cccc(O)c1)c1cc2ccccc2o1 (stereo not drawn) | > 200 µM | > 200 µM | Dose-Dependent Effect | 3.83% | inactive | > 200 µM | inactive | > 200 µM | 75.5% | 1.94% |  | Activity (Enterococcus faecalis [4]): Active |
| CCCCCCCCCC(=O)N[C@@H](Cc1c[nH]c2ccccc12)C(=O)N[C@H](CC(N)=O)C(=O)N[C@@H](CC(=O)O)C(=O)N[C@@H]1C(=O)NCC(=O)N[C@@H](CCCN)C(=O)N[C@@H](CC(=O)O)C(=O)N[C@H](C)C(=O)N[C@@H](CC(=O)O)C(=O)NCC(=O)N[C@H](CO)C(=O)N[C@@H]([C@H](C)CC(=O)O)C(=O)N[C@@H](CC(=O)c2ccccc2N)C(=O)O[C@@H]1C |  |  |  |  |  |  |  |  |  |  | 8.45% |  |
| O=C(C1=C(O)C(=O)N(c2nnc(SCc3ccccc3)s2)C1c1ccccc1)c1cc2ccccc2o1 (stereo not drawn) | > 200 µM | 22 µM | Dose-Dependent Effect | 7.01% | inactive | > 200 µM |  | > 200 µM | 72.2% | 4.16% | 26.66% |  |
